According to ChEMBL document CHEMBL1158232, “Isolation of Polyhydroxysteroids from the Gorgonian Acabaria undulata” (J Nat Prod, 1996):
Calls of active or inactive are those of the source. The rule behind the calls is not given here.

Experiments:
[1] = target: T1, Phospholipase A2 (Homo sapiens, UniProt P04054); test: Inhibition of PLA2
Target sequence in this assay (P04054 whole entry): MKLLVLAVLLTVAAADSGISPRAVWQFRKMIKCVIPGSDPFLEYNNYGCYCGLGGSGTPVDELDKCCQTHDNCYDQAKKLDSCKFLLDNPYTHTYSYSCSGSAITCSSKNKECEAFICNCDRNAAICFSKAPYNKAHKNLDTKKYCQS

[2] = tested on: P388; test: Cytotoxicity against mouse P388 cells; assay type: functional, cell-based
[3] = tested on: DLD-1; test: Cytotoxicity against human DLD1 cells; assay type: functional, cell-based
[4] = target: T1, Phospholipase A2; test: Inhibition of PLA2 at 100 uM
Target sequence in this assay (P04054 23-148 limits assumed): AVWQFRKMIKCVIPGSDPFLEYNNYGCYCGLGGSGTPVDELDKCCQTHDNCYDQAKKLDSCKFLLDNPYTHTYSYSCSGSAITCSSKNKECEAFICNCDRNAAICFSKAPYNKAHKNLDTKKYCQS

Row | IC50 [1] [µM] | Activity [4] | Structure (SMILES) | IC50 [2] [µM] | IC50 [3] [µM]
1 | 21.5 | – | CC(C)/C=C/[C@@H](C)[C@H]1CC[C@@H]2[C@]1(C)CC[C@H]1[C@@]23O[C@@H]3[C@H](O)[C@@]2(O)C[C@@H](O)CC[C@]12C | 28.7 | 24.6
2 | – | inactive | CC(C)C(C)/C=C/[C@@H](C)[C@H]1CC[C@@H]2[C@]1(C)CC[C@H]1[C@@]23O[C@@H]3[C@H](O)[C@@]2(O)C[C@@H](O)CC[C@]12C (some centres not stated) | 20.2 | 22.4
3 | – | inactive | CC(=O)O[C@H]1CC[C@]2(C)[C@H]3CC[C@]4(C)[C@@H]([C@H](C)/C=C/CC(C)C)CC[C@H]4[C@]34O[C@@H]4[C@H](OC(C)=O)[C@@]2(O)C1 | 11.6 | 12.6
4 | 13.8 | – | CC(C)CCC[C@@H](C)[C@H]1CC[C@@H]2[C@]1(C)CC[C@H]1[C@@]23O[C@@H]3[C@H](O)[C@@]2(O)C[C@@H](O)CC[C@]12C | 17.9 | 19.6
